Among the data in patent US11866405B2, “Substituted indazoles as IRAK4 inhibitors” (AstraZeneca AB, priority 2020, dated 2024) are IC50 values, retold here.

The target in assay [1] is IRAK4 auto-phosphorylation (Homo sapiens (Human), UniProt Q9NWZ3). Briefly: IRAK4 phosphorylation cell assay in IL-1β-stimulated Karpas-299 cells. The assay is classed as cell-based. Conditions: IL-1β 22.7 ng/mL, pIRAK4 (Thr345/Ser346), geometric mean of at least 2 experiments. The method, boiled down: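 Karpas-299 cells were preincubated 1 h at 37 °C with compound (10-point half-log series, top 30 μM), then stimulated 10 min with 22.7 ng/mL IL-1β. Cells were fixed and stained for pIRAK4 (Thr345/Ser346), and per-cell fluorescence was quantified by high-content imaging. IC50 values are geometric means of at least 2 experiments.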

Assay [2] concerns the target human recombinant IRAK4 protein (Homo sapiens (Human), UniProt Q9NWZ3). Briefly: IRAK4 enzyme assay (mass spectrometry readout). The assay is classed as biochemical. Conditions: 3 mM ATP, 0.2 nM enzyme; geometric mean of at least n=2, * single experiment. The method, boiled down: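 0.2 nM IRAK4 preincubated 15 min at room temperature with compound (10-point half-log series, top 1 μM or 10 μM) in pH 7.4 Tris buffer with 3 mM ATP; 10 μM peptide substrate added, 2 h at room temperature, formic acid stop. Phospho/unphospho peptide ratio by LC-MS/MS; potency from curve fit, geometric mean of n≥2 or single run.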

The test system of assay [3] is IL-1β stimulated IL-8 release in hTHP1 cells. The assay can be described thus: IL-1β-induced IL-8 release in human THP-1 monocyte cell line. The class given is cell-based. Conditions: THP-1 cells, IL-1β 1.8 ng/mL. The method, then: Effect of IRAK4 Inhibitors on IL-1β-Induced Cytokine Release in Human THP-1 Monocyte Cell Line
THP-1 cells were cultured in RPMI 1640 (Gibco 72400-021) containing 10% FBS (Gibco 10270-106), 1 mM Na-pyruvate (Gibco 11360-070) and 100 U/mL Penicillin-Streptomycin (Gibco 15140-122). Cells were plated at 5×10^4 cells per well in 384 well Echo certified plates (Labcyte PPT-0200) to which compounds had been added at various concentrations (10 point half log dose response with a final top concentration of 10 μM) using an Echo 655 (Labcyte Inc). The plate was incubated for 1 h at 37° C., then recombinant […] (R&D Systems 201-LB-025/CF) was added to a final concentration of 1.8 ng/mL. The plates were incubated at 37° C. for 18h. The plates were centrifuged at 250×g for four minutes, then 1.6 μL of the cell supernatant was transferred to a white low volume 384 well plate (Greiner #784075) using acoustic dispensing on an Echo 655. Next, 200 nL of acceptor bead (5 mg/mL) and biotinylated anti-IL-8 antibody (500 nM) was added using acoustic dispensing (beads and antibody were from a PerkinElmer 18 Alpha LISA detection kit, AL224C). The plate was sealed, briefly centrifuged, then incubated at room temperature for 1 h. Afterwards, 200 nL of donor bead solution (5 mg/mL) was added, the plate sealed and briefly centrifuged, then incubated for 1 h before being read on an Envision plate reader to allow determination the concentration of IRAK4 inhibitor required to effect a 50% reduction in the amount of IL-8 released following IL-1β stimulation in THP1 cells (Table 2). The quantified data were analysed in Genedata Screener 15 (Genedata AG). Data presented are the geometric mean of at least n=2, or as denoted by an * are obtained from a single experiment.

Where [4] appears, read: Homo sapiens, THP-1, 18 h, geometric mean of at least n=2, * n = 1, read-out: hTHP1, IL1β stim, IL8 release red. IC50.

Like-named read-outs stand apart in the source and are kept apart here.

Sequence of human recombinant IRAK4 protein (Q9NWZ3 whole entry): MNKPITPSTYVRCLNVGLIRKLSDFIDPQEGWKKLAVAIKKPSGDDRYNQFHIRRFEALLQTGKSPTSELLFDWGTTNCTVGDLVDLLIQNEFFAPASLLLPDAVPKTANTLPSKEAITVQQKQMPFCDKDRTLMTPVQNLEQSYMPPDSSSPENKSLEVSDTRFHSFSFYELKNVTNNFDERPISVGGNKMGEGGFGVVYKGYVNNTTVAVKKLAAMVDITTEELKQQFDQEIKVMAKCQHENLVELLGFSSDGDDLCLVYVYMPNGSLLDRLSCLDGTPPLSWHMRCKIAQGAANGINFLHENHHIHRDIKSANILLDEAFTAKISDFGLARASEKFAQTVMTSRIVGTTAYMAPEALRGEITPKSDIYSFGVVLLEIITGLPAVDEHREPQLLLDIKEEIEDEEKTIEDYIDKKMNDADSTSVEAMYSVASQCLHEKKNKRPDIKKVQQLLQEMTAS
Sequence of IRAK4 auto-phosphorylation (Q9NWZ3 whole entry): as above

Take `COc1cc2nn(C3CCC4(CC3)CN(C(C)=O)C4)cc2cc1C(=O)Nc1cnc2cccnn12` [Example 21, 2-(2-Acetyl-2-azaspiro[3.5]nonan-7-yl)-N-(imidazo[1,2-b]pyridazin-3-yl)-6-methoxy-2H-indazole-5-carboxamide]: the IC50 (as a rule, the concentration needed to halve the response being measured) in assay [1] was 36 nM; in assay [2], 0.7 nM; in assay [3] (setting [4]), 17 nM.
Regarding “2-((1r,4r)-4-(cyclopropanecarboxamido)cyclohexyl)-6-methoxy-N-(pyrazolo[1,5-a]pyrimidin-3-yl)-2H-indazole-5-carboxamide [Example 26]”, the IC50 in assay [1] amounted to 26 nM; in assay [2], 1.6 nM; in assay [3] (18 h, geometric mean of at least n=2, * n = 1, read-out: hTHP1, IL1β stim, IL8 release red. IC50), 25 nM.
Take `COc1cc2nn([C@H]3CC[C@]4(CC3)CC(=O)N(C)C4)cc2cc1C(=O)Nc1cnn2cccnc12` [Example 86, 6-methoxy-2-((5r,8r)-2-methyl-3-oxo-2-azaspiro[4.5]decan-8-yl)-N-(pyrazolo[1,5-a]pyrimidin-3-yl)-2H-indazole-5-carboxamide]: the figures for the concentration for half-maximal inhibition (IC50) in assay [1], in assay [2] and in assay [3] (setting [4]) were 36 nM, 1.9 nM and 31 nM, respectively.
Regarding `CC(=O)N1CC2(CC[C@@H](n3cc4cc(C(=O)Nc5cnn6cccnc56)c(OC5CC5)cc4n3)[C@H](C)C2)C1` (single isomer, unassigned) [Example 29], the IC50 came out at 31 nM in assay [1], 0.5 nM in assay [2] and 20 nM in assay [3] (setting [4]).
For `COc1cc2nn([C@H]3CCC[C@@H](O)C3)cc2cc1C(=O)Nc1cnc2cccnn12` (single isomer, unassigned) [Example 10] the same measures were 19 nM, 1.2 nM and 14 nM.
Take `O=C(Nc1cnn2cccnc12)c1cc2cn([C@H]3CCC[C@H](O)C3)nc2cc1OC1CC1` (single isomer, unassigned) [Example 19]: the results for the concentration for half-maximal inhibition (IC50) in assay [1], in assay [2] and in assay [3] (setting [4]) were 47 nM, 1 nM and 35 nM, respectively.
With `C[C@H]1C[C@@H](O)CC[C@@H]1n1cc2cc(C(=O)Nc3cnn4cccnc34)c(OC3CC3)cc2n1` (single isomer, unassigned) [Example 45], the concentration for half-maximal inhibition (IC50) worked out at 70 nM in assay [1], 1.2 nM in assay [2] and 46 nM in assay [3] (setting [4]).
